According to patent publication US6559170B1, “Pyridine derivatives having fungicidal activity and processes to produce and use same” (Dow AgroScience LLC, priority 1999, dated 2003):

What was measured:
Erysiphe graminis—ERYSGT = assay: Powdery Mildew of Wheat, 1-day protectant whole plant test; assay type: in vivo; details: 100 ppm spray, 1-day protectant (1DP), wheat cultivar Monon
[1] = system: Leptosphaeria nodorum—LEPTNO; assay: Glume blotch of wheat, 1-day protectant whole plant test; assay type: in vivo; details: 100 ppm spray, 1-day protectant (1DP), wheat cultivar Monon
[2] = system: Puccinia recondita—PUCCRT; assay: Brown rust of wheat, 1-day protectant whole plant test; assay type: in vivo; details: 100 ppm spray, 1-day protectant (1DP), wheat cultivar Monon
[3] = system: Phytophthora infestans—PHYTIN; assay type: in vivo; details: 100 ppm spray, 1-day protectant (1DP), tomatoes cultivar Rutgers

With `CNC(=O)C(=NOC)c1ccccc1COc1ncc(Sc2ccccc2)cc1Cl` [Compound 3, 2-Methoxyimino-N-methyl-[2-(3-chloro-5-phenylthio-2-pyridyloxy)methylphenyl]acetamide] the “ERYSGT percent control of the plant disease compared with untreated, inoculated plants” value (“ERYSGT percent control” for short) (Erysiphe graminis—ERYSGT) was 85%, the “LEPTNO percent control of the plant disease compared with untreated, inoculated plants” value (shortened to “LEPTNO percent control”) [1] was 90% and the melting point was 84 to 86 °C. The “PUCCRT percent control of the plant disease compared with untreated, inoculated plants” value (“PUCCRT percent control” below) [2] was 98% and the “PHYTIN percent control of the plant disease compared with untreated, inoculated plants” value (from here on “PHYTIN percent control”) [3] was 90%.

For `CNC(=O)C(=NOC)c1cccc(Cl)c1COc1ccc(Sc2ccc(C)cc2)cn1` [Compound 4, 2-Methoxyimino-N-methyl-{3-chloro-2-[5-(4-methylphenyl)thio-2-pyridyloxy]methylphenyl}acetamide], the “ERYSGT percent control” value (Erysiphe graminis—ERYSGT) was 67%, the “LEPTNO percent control” value [1] was 98% and the melting point was 100 to 102 °C. The “PUCCRT percent control” value [2] was 99% and the “PHYTIN percent control” value [3] was 89%.

In the case of `CNC(=O)C(=NOC)c1ccccc1COc1ccc(Sc2ccccc2)cn1` [Compound 6, 2-Methoxyimino-N-methyl-[2-(5-phenylthio-2-pyridyloxy)methylphenyl]acetamide], the “ERYSGT percent control” value (Erysiphe graminis—ERYSGT) was 80%, the “LEPTNO percent control” value [1] was 98% and the melting point was 95 to 96 °C. The “PUCCRT percent control” value [2] was 98% and the “PHYTIN percent control” value [3] was 90%.
